25 compounds from US10752621B2, “Oxazolidinone compounds and methods of use thereof as antibacterial agents” (priority 2017, dated 2020) can be followed below.

The subject of this test is Mycobacterium tuberculosis (Mtb-GFP; H37Rv pMSP12::GFP). Briefly: microbe, parasite or virus in culture. In kind it is cell-based. The settings on record: 168 h.
Where [1] appears, read: pH 6.8, read-out: Mtb Cho MITC95.
Setting [2] is: pH 6.8, read-out: Mtb Glu MITC95.

SMILES strings stand for the structures. In brackets after ≈: the same amount, converted by molar mass. Where two headings read alike, the source gives them in different places.

In the case of `Cn1nccc1-c1ccc(N2C[C@H](CN/C(N)=N/C#N)OC2=O)cc1F` [Example 1, (S,E)-2-cyano-1-((3-(3-fluoro-4-(1-methyl-1H-pyrazol-5-yl)phenyl)-2-oxooxazolidin-5-yl)methyl)guanidine], the MIC by setting is: under setting [1], 0.78 µM (≈ 0.279 µg/mL); under setting [2], 0.78 µM (≈ 0.279 µg/mL).
For the compound `CC(=N)NC[C@H]1CN(c2ccc(-c3ccnn3C)c(F)c2)C(=O)O1` [Example 21, (S)-N-((3-(3-fluoro-4-(1-methyl-1H-pyrazol-5-yl)phenyl)-2-oxooxazolidin-5-yl)methyl)acetimidamide], the MIC under setting [1] is 25 µM (≈ 8.28 µg/mL) and the MIC under setting [2] is 25 µM (≈ 8.28 µg/mL).
For `C/C(=N\C#N)NC[C@H]1CN(c2ccc(-c3cccc(S(N)(=O)=O)c3)c(F)c2)C(=O)O1` [Example 7, (S,E)-N′-cyano-N-((3-(2-fluoro-3′-sulfamoyl-[1,1′-biphenyl]-4-yl)-2-oxooxazolidin-5-yl)methyl)acetimidamide], the MIC amounted to 1.14 µM (≈ 0.492 µg/mL) under setting [1] and 1.5 µM (≈ 0.647 µg/mL) under setting [2].
With `N#C/N=C(\N)NC[C@H]1CN(c2ccc(-c3ccc(-n4nccn4)nc3)c(F)c2)C(=O)O1` [Example 3, (S,E)-1-((3-(4-(6-(2H-1,2,3-triazol-2-yl)pyridin-3-yl)-3-fluorophenyl)-2-oxooxazolidin-5-yl)methyl)-2-cyanoguanidine], the MIC under setting [1] is 0.19 µM (≈ 0.0801 µg/mL) and the MIC under setting [2] was determined as 0.19 µM (≈ 0.0801 µg/mL).
On to `CC(=N)NC[C@H]1CN(c2cc(F)c(-c3cccc(S(N)(=O)=O)c3)c(F)c2)C(=O)O1` [Example 22, (S)-N-((3-(2,6-difluoro-3′-sulfamoyl-[1,1′-biphenyl]-4-yl)-2-oxooxazolidin-5-yl)methyl)acetimidamide], for which the MIC reads like this: under setting [1], 6.25 µM (≈ 2.65 µg/mL); under setting [2], 3.12 µM (≈ 1.32 µg/mL).
Regarding `N=CNC[C@H]1CN(c2cc(F)c(-c3ccc(S(N)(=O)=O)cc3)c(F)c2)C(=O)O1` [Example 18, (S)-N-((3-(2,6-difluoro-4′-sulfamoyl-[1,1′-biphenyl]-4-yl)-2-oxooxazolidin-5-yl)methyl)formimidamide], the MIC is, setting by setting: under setting [1], 0.39 µM (≈ 0.16 µg/mL); under setting [2], 0.29 µM (≈ 0.119 µg/mL).
For `CS(=O)(=O)c1ccc(-c2ccc(N3C[C@H](CNC=N)OC3=O)cc2F)cc1` [Example 16, (S)-N-((3-(2-fluoro-4′-(methylsulfonyl)-[1,1′-biphenyl]-4-yl)-2-oxooxazolidin-5-yl)methyl)formimidamide], the MIC under setting [1] was 0.39 µM (≈ 0.153 µg/mL) and the MIC under setting [2] is 0.19 µM (≈ 0.0744 µg/mL).
In the case of `C/C(=N\C#N)NC[C@H]1CN(c2ccc(-c3ccc(S(C)(=O)=O)cc3)c(F)c2)C(=O)O1` [Example 14, (S,E)-N′-cyano-N-((3-(2-fluoro-4′-(methylsulfonyl)-[1,1′-biphenyl]-4-yl)-2-oxooxazolidin-5-yl)methyl)acetimidamide], the MIC runs as follows: under setting [1], 0.58 µM (≈ 0.25 µg/mL); under setting [2], 0.58 µM (≈ 0.25 µg/mL).
Turning to `N=CNC[C@H]1CN(c2ccc(-c3ccc(-n4cnnn4)nc3)c(F)c2)C(=O)O1` [Example 17, (S)-N-((3-(4-(6-(1H-tetrazol-1-yl)pyridin-3-yl)-3-fluorophenyl)-2-oxooxazolidin-5-yl)methyl)formimidamide], the MIC runs as follows: under setting [1], 0.24 µM (≈ 0.0918 µg/mL); under setting [2], 0.12 µM (≈ 0.0459 µg/mL).
In the case of `C/C(=N\C#N)NC[C@H]1CN(c2ccc(-c3ccc(-n4nnc(C)n4)nc3)c(F)c2)C(=O)O1` [Example 12, (S,E)-N′-cyano-N-((3-(3-fluoro-4-(6-(5-methyl-2H-tetrazol-2-yl)pyridin-3-yl)phenyl)-2-oxooxazolidin-5-yl)methyl)acetimidamide], the MIC reads like this: under setting [1], 0.19 µM (≈ 0.0827 µg/mL); under setting [2], 0.14 µM (≈ 0.061 µg/mL).
`CC(=O)NC[C@H]1CN(c2ccc(N3CCOCC3)c(F)c2)C(=O)O1` [Linezolid, reference compound]: the MIC runs as follows: under setting [1], 3.14 µM (≈ 1.06 µg/mL); under setting [2], 4.58 µM (≈ 1.55 µg/mL).
Consider `CS(=O)(=O)c1ccc(-c2ccc(N3C[C@H](CN/C(N)=N/C#N)OC3=O)cc2F)cn1` [Example 5, (S,E)-2-cyano-1-((3-(3-fluoro-4-(6-(methylsulfonyl)pyridin-3-yl)phenyl)-2-oxooxazolidin-5-yl)methyl)guanidine], for which the MIC is, setting by setting: under setting [1], 0.39 µM (≈ 0.169 µg/mL); under setting [2], 0.78 µM (≈ 0.337 µg/mL).
In the case of `C/C(=N\C#N)NC[C@H]1CN(c2ccc(N3CCOCC3)c(F)c2)C(=O)O1` [Example 9, (S,E)-N′-cyano-N-((3-(3-fluoro-4-morpholinophenyl)-2-oxooxazolidin-5-yl)methyl)acetimidamide], the MIC is 3.12 µM (≈ 1.13 µg/mL) under setting [1] and 3.12 µM (≈ 1.13 µg/mL) under setting [2].
`C/C(=N\C#N)NC[C@H]1CN(c2cnc(N3CCS(=O)(=O)CC3)c(F)c2)C(=O)O1` [Example 8, (S,E)-N′-cyano-N-((3-(6-(1,1-dioxidothiomorpholino)-5-fluoropyridin-3-yl)-2-oxooxazolidin-5-yl)methyl)acetimidamide]: the MIC runs as follows: under setting [1], 6.25 µM (≈ 2.57 µg/mL); under setting [2], 6.25 µM (≈ 2.57 µg/mL).
`C/C(=N\C#N)NC[C@H]1CN(c2ccc(-c3ccc(-n4nccn4)nc3)c(F)c2)C(=O)O1` [Example 10, (S,E)-N-((3-(4-(6-(2H-1,2,3-triazol-2-yl)pyridin-3-yl)-3-fluorophenyl)-2-oxooxazolidin-5-yl)methyl)-N′-cyanoacetimidamide]: the MIC is, setting by setting: under setting [1], 0.39 µM (≈ 0.164 µg/mL); under setting [2], 0.14 µM (≈ 0.0589 µg/mL).
Turning to `CS(=O)(=O)c1ccc(-c2ccc(N3C[C@H](CN/C(N)=N/C#N)OC3=O)cc2F)cc1` [Example 4, (S,E)-2-cyano-1-((3-(2-fluoro-4′-(methylsulfonyl)-[1,1′-biphenyl]-4-yl)-2-oxooxazolidin-5-yl)methyl)guanidine], the MIC under setting [1] turned out to be 0.39 µM (≈ 0.168 µg/mL) and the MIC under setting [2] is 0.39 µM (≈ 0.168 µg/mL).
On to `Cc1nnn(-c2ccc(-c3ccc(N4C[C@H](CN/C(N)=N/C#N)OC4=O)cc3F)cn2)n1` [Example 2, (S,E)-2-cyano-1-((3-(3-fluoro-4-(6-(5-methyl-2H-tetrazol-2-yl)pyridin-3-yl)phenyl)-2-oxooxazolidin-5-yl)methyl)guanidine], for which the MIC under setting [1] was determined as 0.19 µM (≈ 0.0829 µg/mL) and the MIC under setting [2] is 0.09 µM (≈ 0.0393 µg/mL).
On the same counts, the results for `Cn1nccc1-c1ccc(N2C[C@H](CNC=N)OC2=O)cc1F` [Example 15, (S)-N-((3-(3-fluoro-4-(1-methyl-1H-pyrazol-5-yl)phenyl)-2-oxooxazolidin-5-yl)methyl)formimidamide] are 0.78 µM (≈ 0.248 µg/mL) and 0.39 µM (≈ 0.124 µg/mL).
On to `C/C(=N\C#N)NC[C@H]1CN(c2ccc(-c3ccnn3C)c(F)c2)C(=O)O1` [Example 6, (S,E)-N′-cyano-N-((3-(3-fluoro-4-(1-methyl-1H-pyrazol-5-yl)phenyl)-2-oxooxazolidin-5-yl)methyl)acetimidamide], for which the MIC was found to be 0.78 µM (≈ 0.278 µg/mL) under setting [1] and 0.78 µM (≈ 0.278 µg/mL) under setting [2].
`C/C(=N\C#N)NC[C@H]1CN(c2ccc(-c3ccc(S(C)(=O)=O)nc3)c(F)c2)C(=O)O1` [Example 13, (S,E)-N′-cyano-N-((3-(3-fluoro-4-(6-(methylsulfonyl)pyridin-3-yl)phenyl)-2-oxooxazolidin-5-yl)methyl)acetimidamide]: the MIC was found to be 1.5 µM (≈ 0.647 µg/mL) under setting [1] and 0.78 µM (≈ 0.337 µg/mL) under setting [2].
As to `CC(=N)NC[C@H]1CN(c2ccc(-c3cccc(S(N)(=O)=O)c3)c(F)c2)C(=O)O1` [Example 24, (S)-N-((3-(2-fluoro-3′-sulfamoyl-[1,1′-biphenyl]-4-yl)-2-oxooxazolidin-5-yl)methyl)acetimidamide], the MIC runs as follows: under setting [1], 6.25 µM (≈ 2.54 µg/mL); under setting [2], 6.25 µM (≈ 2.54 µg/mL).
Consider `N=CNC[C@H]1CN(c2cc(F)c(-c3cccc(S(N)(=O)=O)c3)c(F)c2)C(=O)O1` [Example 19, (S)-N-((3-(2,6-difluoro-3′-sulfamoyl-[1,1′-biphenyl]-4-yl)-2-oxooxazolidin-5-yl)methyl)formimidamide], for which the MIC is 0.68 µM (≈ 0.279 µg/mL) under setting [1] and 0.39 µM (≈ 0.16 µg/mL) under setting [2].
On the same counts, the results for `C/C(=N\C#N)NC[C@H]1CN(c2cc(F)c(N3CCS(=O)(=O)CC3)c(F)c2)C(=O)O1` [Example 11, (S,E)-N′-cyano-N-((3-(4-(1,1-dioxidothiomorpholino)-3,5-difluorophenyl)-2-oxooxazolidin-5-yl)methyl)acetimidamide] are 3.12 µM (≈ 1.33 µg/mL) and 1.5 µM (≈ 0.641 µg/mL).
For the compound `N=CNC[C@H]1CN(c2cc(F)c(N3CCOCC3)c(F)c2)C(=O)O1` [Example 20, (S)-N-((3-(3,5-difluoro-4-morpholinophenyl)-2-oxooxazolidin-5-yl)methyl)formimidamide], the MIC runs as follows: under setting [1], 0.58 µM (≈ 0.197 µg/mL); under setting [2], 0.14 µM (≈ 0.0476 µg/mL).
Consider `CC(=N)NC[C@H]1CN(c2ccc(-c3ccc(-n4cnnn4)nc3)c(F)c2)C(=O)O1` [Example 23, (S)-N-((3-(4-(6-(1H-tetrazol-1-yl)pyridin-3-yl)-3-fluorophenyl)-2-oxooxazolidin-5-yl)methyl)acetimidamide], for which the MIC reads like this: under setting [1], 12.5 µM (≈ 4.95 µg/mL); under setting [2], 6.25 µM (≈ 2.48 µg/mL).
